Values belong to the compound of their own block, whether it stands above or below them.
Tests used:
[1] = biological target: Activin receptor type-2A (Homo sapiens) (UniProt P27037); conditions: at 10 µM
[2] = biological target: T1, Serine/threonine-protein kinase TBK1 (Homo sapiens) (UniProt Q9UHD2); assay: Selectivity interaction (KinomeScan (DiscoverX)) EUB0001049a TBK1; conditions: at 1 µM
T1 sequence (whole entry): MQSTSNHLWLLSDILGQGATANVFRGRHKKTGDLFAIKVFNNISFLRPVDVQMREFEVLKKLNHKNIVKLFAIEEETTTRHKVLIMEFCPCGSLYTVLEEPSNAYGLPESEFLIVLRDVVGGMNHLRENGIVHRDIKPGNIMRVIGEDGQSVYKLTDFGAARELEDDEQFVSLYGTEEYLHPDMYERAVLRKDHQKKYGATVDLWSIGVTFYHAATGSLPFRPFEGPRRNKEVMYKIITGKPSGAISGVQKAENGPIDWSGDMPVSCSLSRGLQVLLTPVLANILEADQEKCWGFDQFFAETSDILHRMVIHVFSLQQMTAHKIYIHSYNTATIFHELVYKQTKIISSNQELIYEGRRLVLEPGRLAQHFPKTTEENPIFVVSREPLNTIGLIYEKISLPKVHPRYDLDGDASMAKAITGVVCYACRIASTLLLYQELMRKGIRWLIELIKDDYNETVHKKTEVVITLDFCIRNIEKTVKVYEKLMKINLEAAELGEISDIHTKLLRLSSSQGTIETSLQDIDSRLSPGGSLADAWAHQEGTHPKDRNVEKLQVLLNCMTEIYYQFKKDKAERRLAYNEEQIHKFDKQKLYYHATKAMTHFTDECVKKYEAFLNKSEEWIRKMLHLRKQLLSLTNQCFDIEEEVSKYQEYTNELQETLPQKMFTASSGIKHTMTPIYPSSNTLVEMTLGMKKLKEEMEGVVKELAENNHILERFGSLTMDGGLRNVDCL

[3] = biological target: Mitogen-activated protein kinase 10 (Homo sapiens, UniProt P53779); assay: Selectivity interaction (KinomeScan (DiscoverX)) EUB0001049a MAPK10; conditions: at 1 µM
[4] = biological target: Ribosomal protein S6 kinase alpha-3 (Homo sapiens, UniProt P51812); assay: Selectivity interaction (ActivX KiNativ screen (kinase selectivity in THP-1 cell lysates)) EUB0000639a RPS6KA3; type: subcellular; conditions: lysate, at 1 µM
[5] = biological target: Mitogen-activated protein kinase 9 (Homo sapiens, UniProt P45984); assay: Selectivity interaction (Kinase panel (Invitrogen)) EUB0000639a MAPK9; conditions: at 200 nM
Activated CDC42 kinase 1 = Activated CDC42 kinase 1 (Homo sapiens, UniProt Q07912); assay: Selectivity interaction (Kinase panel (Carna Biosciences)) EUB0001542aTs TNK2; conditions: at 1 µM
[6] = biological target: Tyrosine-protein kinase CSK (Homo sapiens) (UniProt P41240); assay: Selectivity interaction (KinomeScan (DiscoverX)) EUB0000092b CSK; conditions: at 10 µM
[7] = biological target: T2, Serine/threonine-protein kinase RIO3 (Homo sapiens) (UniProt O14730); assay: Selectivity interaction (KinomeScan (DiscoverX)) EUB0001619a RIOK3; conditions: at 1 µM
T2 sequence (whole entry): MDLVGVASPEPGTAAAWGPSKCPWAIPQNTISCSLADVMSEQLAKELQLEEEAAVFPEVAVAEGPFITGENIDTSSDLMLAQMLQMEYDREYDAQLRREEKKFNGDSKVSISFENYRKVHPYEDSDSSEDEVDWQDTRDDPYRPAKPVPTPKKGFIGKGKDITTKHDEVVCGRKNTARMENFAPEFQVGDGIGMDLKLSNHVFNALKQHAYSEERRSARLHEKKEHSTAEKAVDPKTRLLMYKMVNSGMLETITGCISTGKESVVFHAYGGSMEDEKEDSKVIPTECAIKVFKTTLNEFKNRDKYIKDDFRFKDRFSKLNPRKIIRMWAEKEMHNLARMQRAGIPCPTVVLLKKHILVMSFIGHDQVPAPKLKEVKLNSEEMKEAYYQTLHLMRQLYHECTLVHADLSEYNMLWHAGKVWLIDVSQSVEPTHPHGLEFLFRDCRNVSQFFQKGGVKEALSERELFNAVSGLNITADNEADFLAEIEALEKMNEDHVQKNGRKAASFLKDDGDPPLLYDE

[8] = biological target: T3, Hormonally up-regulated neu tumor-associated kinase (Homo sapiens) (UniProt P57058); assay: Selectivity interaction (KinomeScan (DiscoverX)) EUB0001619a HUNK; conditions: at 1 µM
T3 sequence (whole entry): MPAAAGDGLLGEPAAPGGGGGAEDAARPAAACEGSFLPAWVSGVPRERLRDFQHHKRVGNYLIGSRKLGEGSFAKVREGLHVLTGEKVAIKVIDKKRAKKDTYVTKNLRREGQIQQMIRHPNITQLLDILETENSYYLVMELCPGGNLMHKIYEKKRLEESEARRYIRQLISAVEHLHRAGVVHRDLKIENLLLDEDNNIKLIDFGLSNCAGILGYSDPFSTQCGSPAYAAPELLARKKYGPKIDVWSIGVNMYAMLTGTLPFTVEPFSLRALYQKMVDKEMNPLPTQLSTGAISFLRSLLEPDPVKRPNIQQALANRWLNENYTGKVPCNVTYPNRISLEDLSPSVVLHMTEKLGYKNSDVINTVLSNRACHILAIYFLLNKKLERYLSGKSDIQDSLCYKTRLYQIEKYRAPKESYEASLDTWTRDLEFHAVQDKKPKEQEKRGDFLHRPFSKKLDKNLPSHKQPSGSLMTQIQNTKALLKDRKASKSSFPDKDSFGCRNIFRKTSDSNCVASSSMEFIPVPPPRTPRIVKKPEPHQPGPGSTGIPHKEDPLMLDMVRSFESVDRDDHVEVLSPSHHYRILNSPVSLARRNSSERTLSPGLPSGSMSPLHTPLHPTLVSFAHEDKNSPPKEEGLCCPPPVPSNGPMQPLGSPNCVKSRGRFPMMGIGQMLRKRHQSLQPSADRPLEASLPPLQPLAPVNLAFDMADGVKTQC

Activated CDC42 kinase 1, sequence (Q07912 whole entry, looked up): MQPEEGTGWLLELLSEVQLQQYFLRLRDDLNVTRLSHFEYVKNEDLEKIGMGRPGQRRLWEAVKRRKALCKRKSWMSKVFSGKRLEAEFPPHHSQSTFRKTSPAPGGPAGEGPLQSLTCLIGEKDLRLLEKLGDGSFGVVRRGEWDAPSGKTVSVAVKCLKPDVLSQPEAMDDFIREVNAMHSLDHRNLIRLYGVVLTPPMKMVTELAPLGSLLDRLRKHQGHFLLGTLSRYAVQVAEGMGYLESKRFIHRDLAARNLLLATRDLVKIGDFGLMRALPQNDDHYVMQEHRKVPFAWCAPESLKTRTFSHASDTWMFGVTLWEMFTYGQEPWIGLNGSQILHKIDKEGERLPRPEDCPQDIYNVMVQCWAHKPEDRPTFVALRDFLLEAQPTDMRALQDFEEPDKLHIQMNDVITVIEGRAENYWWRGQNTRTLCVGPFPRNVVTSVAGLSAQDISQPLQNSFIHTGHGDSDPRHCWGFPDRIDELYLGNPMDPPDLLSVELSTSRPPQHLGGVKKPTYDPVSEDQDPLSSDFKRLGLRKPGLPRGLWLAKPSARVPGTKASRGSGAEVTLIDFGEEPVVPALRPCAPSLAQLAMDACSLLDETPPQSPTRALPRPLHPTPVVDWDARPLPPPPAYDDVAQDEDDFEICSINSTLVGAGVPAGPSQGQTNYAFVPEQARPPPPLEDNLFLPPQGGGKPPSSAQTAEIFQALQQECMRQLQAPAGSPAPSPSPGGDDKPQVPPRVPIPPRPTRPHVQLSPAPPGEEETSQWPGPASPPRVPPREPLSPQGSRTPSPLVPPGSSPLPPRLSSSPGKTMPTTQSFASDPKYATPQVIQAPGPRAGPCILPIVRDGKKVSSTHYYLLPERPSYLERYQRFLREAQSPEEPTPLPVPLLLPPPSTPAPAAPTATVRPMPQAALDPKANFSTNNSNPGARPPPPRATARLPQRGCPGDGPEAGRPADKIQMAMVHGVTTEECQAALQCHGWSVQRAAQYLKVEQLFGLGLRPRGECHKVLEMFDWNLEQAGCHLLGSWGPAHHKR
Tyrosine-protein kinase CSK (Homo sapiens), sequence (P41240 2-450 limits assumed): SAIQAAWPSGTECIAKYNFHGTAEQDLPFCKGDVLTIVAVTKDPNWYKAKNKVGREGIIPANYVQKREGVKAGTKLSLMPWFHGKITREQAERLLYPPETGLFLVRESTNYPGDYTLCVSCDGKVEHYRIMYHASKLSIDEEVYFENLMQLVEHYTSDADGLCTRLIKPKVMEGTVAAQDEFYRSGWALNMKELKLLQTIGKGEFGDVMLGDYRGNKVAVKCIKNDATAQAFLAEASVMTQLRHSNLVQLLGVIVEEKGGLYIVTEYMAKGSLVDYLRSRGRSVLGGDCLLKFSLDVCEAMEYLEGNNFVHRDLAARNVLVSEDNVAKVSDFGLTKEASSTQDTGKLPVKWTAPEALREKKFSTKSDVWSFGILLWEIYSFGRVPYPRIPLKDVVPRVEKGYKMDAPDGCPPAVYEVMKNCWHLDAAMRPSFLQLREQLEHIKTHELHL
Ribosomal protein S6 kinase alpha-3, sequence (P51812 whole entry): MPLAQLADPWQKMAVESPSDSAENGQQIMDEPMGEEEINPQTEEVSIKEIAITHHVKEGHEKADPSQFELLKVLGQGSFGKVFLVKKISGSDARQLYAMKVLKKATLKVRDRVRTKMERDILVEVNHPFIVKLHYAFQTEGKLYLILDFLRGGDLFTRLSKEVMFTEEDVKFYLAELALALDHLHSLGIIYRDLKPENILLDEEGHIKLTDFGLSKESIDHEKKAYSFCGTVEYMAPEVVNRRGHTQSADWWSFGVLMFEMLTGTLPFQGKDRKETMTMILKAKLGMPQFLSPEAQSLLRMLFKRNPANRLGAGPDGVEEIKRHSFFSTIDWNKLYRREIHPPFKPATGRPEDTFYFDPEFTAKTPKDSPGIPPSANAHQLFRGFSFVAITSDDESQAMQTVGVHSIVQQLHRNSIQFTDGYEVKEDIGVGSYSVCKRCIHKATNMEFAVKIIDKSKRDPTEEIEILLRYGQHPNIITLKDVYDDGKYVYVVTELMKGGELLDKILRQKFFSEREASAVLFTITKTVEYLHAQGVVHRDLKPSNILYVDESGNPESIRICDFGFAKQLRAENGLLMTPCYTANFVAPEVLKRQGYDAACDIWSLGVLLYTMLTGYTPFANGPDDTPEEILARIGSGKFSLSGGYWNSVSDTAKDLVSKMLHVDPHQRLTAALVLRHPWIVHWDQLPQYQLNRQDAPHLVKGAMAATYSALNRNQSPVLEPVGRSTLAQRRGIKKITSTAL
Activin receptor type-2A (Homo sapiens), sequence (P27037 whole entry): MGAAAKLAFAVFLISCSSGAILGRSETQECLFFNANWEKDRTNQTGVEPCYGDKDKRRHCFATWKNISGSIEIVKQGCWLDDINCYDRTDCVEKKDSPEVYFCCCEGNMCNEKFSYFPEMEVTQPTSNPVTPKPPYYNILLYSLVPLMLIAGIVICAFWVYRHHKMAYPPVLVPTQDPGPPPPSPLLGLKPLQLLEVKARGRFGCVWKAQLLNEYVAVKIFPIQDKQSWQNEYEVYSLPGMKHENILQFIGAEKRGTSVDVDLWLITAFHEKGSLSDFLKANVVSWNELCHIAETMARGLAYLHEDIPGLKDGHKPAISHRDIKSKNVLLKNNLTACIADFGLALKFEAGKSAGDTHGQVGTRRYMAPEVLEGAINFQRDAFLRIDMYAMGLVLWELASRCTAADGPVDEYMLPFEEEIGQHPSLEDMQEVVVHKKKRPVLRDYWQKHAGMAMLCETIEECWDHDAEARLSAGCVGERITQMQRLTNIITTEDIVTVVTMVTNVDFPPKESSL
Mitogen-activated protein kinase 9, sequence (P45984 whole entry, looked up): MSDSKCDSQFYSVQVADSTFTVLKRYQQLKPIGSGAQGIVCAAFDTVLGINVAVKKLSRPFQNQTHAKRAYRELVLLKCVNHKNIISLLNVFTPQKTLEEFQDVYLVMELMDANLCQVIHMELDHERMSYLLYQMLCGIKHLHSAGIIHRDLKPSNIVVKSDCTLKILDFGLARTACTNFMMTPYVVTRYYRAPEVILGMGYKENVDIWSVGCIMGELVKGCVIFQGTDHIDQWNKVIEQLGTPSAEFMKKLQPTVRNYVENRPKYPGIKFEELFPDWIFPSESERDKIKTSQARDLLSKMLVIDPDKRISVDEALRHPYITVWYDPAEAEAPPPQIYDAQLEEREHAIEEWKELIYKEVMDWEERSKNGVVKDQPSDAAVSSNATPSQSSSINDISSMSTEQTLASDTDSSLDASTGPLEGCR
Mitogen-activated protein kinase 10, sequence (P53779 whole entry): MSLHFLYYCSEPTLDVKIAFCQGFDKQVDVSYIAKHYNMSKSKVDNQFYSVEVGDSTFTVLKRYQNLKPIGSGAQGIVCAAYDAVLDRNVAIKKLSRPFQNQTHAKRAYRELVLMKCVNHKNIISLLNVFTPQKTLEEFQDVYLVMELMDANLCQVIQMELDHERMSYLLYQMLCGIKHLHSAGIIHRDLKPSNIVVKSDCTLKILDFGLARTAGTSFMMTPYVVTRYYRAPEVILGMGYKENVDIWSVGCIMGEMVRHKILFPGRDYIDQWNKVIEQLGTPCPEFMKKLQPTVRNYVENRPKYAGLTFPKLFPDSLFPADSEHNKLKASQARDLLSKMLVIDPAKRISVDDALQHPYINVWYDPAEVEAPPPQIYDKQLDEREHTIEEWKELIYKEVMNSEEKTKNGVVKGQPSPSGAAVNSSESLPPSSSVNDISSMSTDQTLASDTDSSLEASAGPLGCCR

SMILES: Cc1cc([C@@H](C)Nc2ccccc2C(=O)O)c2nc(N3CCOCC3)cc(=O)n2c1 [AZD-6482]
% of control [1]: 94%

SMILES: COc1cc(Nc2nc(C)cc(-c3cnn4nc(OC)ccc34)n2)cc(C(F)(F)F)c1
% of control [2]: 80% | % of control [3]: 77%

% of inhibition [4]: -8.2% | % of inhibition [5]: 0.603%
SMILES: CC[C@@H]1[C@H](F)C(=O)N[C@@H]1COc1nccc2cc(C(N)=O)c(OC)cc12 [ZIMLOVISERTIB]

% of inhibition (Activated CDC42 kinase 1): 82%
SMILES: Cn1cc(Nc2nccc(N3CC4CCC(C3)N4C(=O)[C@@H]3CC3(F)F)n2)cn1

SMILES: CCC(=O)N1CCN(c2ccc(-n3c(=O)ccc4cnc5ccc(-c6cnc7ccccc7c6)cc5c43)cc2C(F)(F)F)CC1
% of control [6]: 71%

SMILES: N#Cc1cccc(-c2c[nH]c3ncnc(N4CCOCC4)c23)c1
% of control [7]: 4.8% | % of control [8]: 100%

— ChEMBL document CHEMBL5465560, “Selectivity Literature for EUbOPEN Chemogenomic Library” (2024)
